Structures can show the parent of a compound that is named as a salt. Positions of bridges follow the written chain, without caps; N, C: chain ends. Residues, ends and D or L forms follow the SMILES beside them.
Assay: in vitro
Details: rat, gh3-tre-luc cells, AC50 (uM) modified / 1000

SMILES | CC50 at 24 h
CCNc1nc(Cl)nc(NC(C)(C)C)n1 [Terbutylazine] | > 90 µM
C#CC(O)C(CC)CCCC (centres unmarked) [4-Ethyloct-1-yn-3-ol] | > 90 µM
CCCCCCCCCCCCCCCO [1-Pentadecanol] | > 90 µM
Cn1c([N+](=O)[O-])cnc1COC(N)=O [Ronidazole] | > 50 µM
CC(=O)OC[C@H]1O[C@@H](O[C@H]2[C@H](O)[C@@H](OC(=O)c3ccccc3C(=O)O)[C@H](O)O[C@@H]2COC(C)=O)[C@H](O)[C@@H](OC(=O)c2ccccc2C(=O)O)[C@@H]1O [Cellulose acetate phthalate] | > 50 µM
CN1[C@@H]2CC[C@H]1C[C@@H](OC(=O)c1c[nH]c3ccccc13)C2 [Tropisetron] | 23.8 µM
COS(=O)(=O)O [Sodium methyl sulfate] | > 90 µM
Clc1ccc2cc3ccccc3cc2c1 [2-Chloroanthracene] | > 90 µM
FC(F)(F)C(=NOCC1OCCO1)c1ccc(Cl)cc1 [Fluxofenim] | > 90 µM
CCC(c1ccccc1)c1noc(CCN(CC)CC)n1 (centres unmarked) [Proxazole citrate] | > 50 µM
Cc1ccnc(NS(=O)(=O)c2ccc(N)cc2)n1 [Sulfamerazine] | > 20 µM
CCN(CC)c1ccc2c(C)cc(=O)oc2c1 [7-Diethylamino-4-methylcoumarin] | > 90 µM
CC(C)(O)C(=O)c1ccc(OCCO)cc1 [2-Hydroxy-1-[4-(2-hydroxyethoxy)phenyl]-2-methylpropan-1-one] | > 90 µM
CCCC(=O)OCCC(C)C [Isopentyl butyrate] | > 90 µM
CCOC(=O)C1=C(C)NC(C)=C(C(=O)OCC)C1c1ccccc1/C=C/C(=O)OC(C)(C)C [Lacidipine] | 11.2 µM
CSCC[C@H](NC(=O)[C@H](Cc1ccc(OS(=O)(=O)O)cc1)NC(=O)[C@@H](N)CC(=O)O)C(=O)NCC(=O)N[C@@H](Cc1c[nH]c2ccccc12)C(=O)N[C@@H](CCSC)C(=O)N[C@@H](CC(=O)O)C(=O)N[C@@H](Cc1ccccc1)C(N)=O [Sincalide] | > 50 µM
C[C@]12C=CC(=O)C=C1CC[C@H]1[C@@H]3C[C@@H](O)[C@](O)(C(=O)CO)[C@@]3(C)C[C@H](O)[C@@]12F [Triamcinolone] | > 90 µM
C=C(C)C(=O)OCC[N+](C)(C)C [(2-(Methacryloyloxy)ethyl)trimethylammonium chloride] | 62.4 µM
CCCCCCCCCCCC[n+]1ccc2ccccc2c1 [2-Dodecylisoquinolinium tosylate] | 5.61 µM
Cc1cc(O)no1 [Hymexazol] | > 100 µM
CSCCC=O [3-(Methylthio)propanal] | > 100 µM
CCC(C)C=O (centres unmarked) [2-Methylbutanal] | > 90 µM
Cc1cccc(C)c1NC(=O)C(C)N (centres unmarked) [Tocainide hydrochloride] | > 20 µM
C=CCOCC(O)CS(=O)(=O)O (centres unmarked) [Sodium 3-(allyloxy)-2-hydroxypropanesulphonate] | > 90 µM

SMILES | CC50 at 24 h
CC(C)OCCO [2-Isopropoxyethanol] | > 90 µM
CCCCOC(=O)C(C)Oc1ccc(Oc2ccc(C(F)(F)F)cn2)cc1 (centres unmarked) [Fluazifop-butyl] | > 90 µM
CC(C)=CCCC(C)CC=O (centres unmarked) [Citronellal] | > 90 µM
CC(C)(C)c1ccc(OC(=O)c2ccccc2O)cc1 [4-tert-Butylphenyl salicylate] | > 90 µM
C[C@@H]1C[C@H]2[C@@H]3C[C@H](F)C4=CC(=O)C=C[C@]4(C)[C@@]3(F)[C@@H](O)C[C@]2(C)[C@@]1(O)C(=O)COC(=O)C(C)(C)C [Flumethasone pivalate] | > 50 µM
C=C[C@]1(C)C[C@@H](OC(=O)CSCCN(CC)CC)[C@]2(C)[C@H](C)CC[C@]3(CCC(=O)[C@H]32)[C@@H](C)[C@@H]1O [Tiamulin] | 14.1 µM
CC1COc2ccccc2N1 (centres unmarked) [3-Methyl-3,4-dihydro-2H-1,4-benzoxazine] | > 90 µM
Nc1cc(Cl)cc(C(=O)O)c1Cl [Chloramben] | > 90 µM
CNC(=O)ON=C(C)C(C)S(C)(=O)=O (centres unmarked) [Butoxycarboxim] | > 900 µM
O=[N+]([O-])c1ccc(O)cc1C(F)(F)F [3-Trifluoromethyl-4-nitrophenol] | 41.4 µM
CO[Si](C)(OC)c1ccccc1 [Dimethoxy(methyl)phenylsilane] | > 90 µM
CCCCC1C(=O)N(c2ccccc2)N(c2ccccc2)C1=O [Phenylbutazone] | > 90 µM
Clc1ccc2c(c1)C(c1ccccc1)=NCc1nncn1-2 [Estazolam] | > 50 µM
ClCCOCCCl [Bis(2-chloroethyl) ether] | > 90 µM
COC(=O)N[C@H](C(=O)N[C@@H](Cc1ccccc1)[C@@H](O)CN(Cc1ccc(-c2ccccn2)cc1)NC(=O)[C@@H](NC(=O)OC)C(C)(C)C)C(C)(C)C [Atazanavir] | > 50 µM
Cc1cccc(C)c1NC(=O)c1cc(S(N)(=O)=O)c(Cl)cc1O [Xipamide] | > 50 µM
CC(C)OC(=O)C(C)N(C(=O)c1ccccc1)c1ccc(F)c(Cl)c1 (centres unmarked) [Flamprop-isopropyl] | 50 µM
CCOC(=O)c1ccccc1O [Ethyl salicylate] | > 50 µM
CCCCCCCCCCCCCCCCCCO [1-Octadecanol] | > 50 µM
C#CC(O)CCCCC (centres unmarked) [1-Octyn-3-ol] | > 90 µM
CNCC(=O)N[C@@H](CCCN=C(N)N)C(=O)N[C@H](C(=O)N[C@@H](Cc1ccc(O)cc1)C(=O)N[C@H](C(=O)N[C@@H](Cc1cnc[nH]1)C(=O)N1CCC[C@H]1C(=O)N[C@@H](C)C(=O)O)C(C)C)C(C)C [Saralasin] | > 50 µM
CCCCCC[C@@H](O)C/C=C\CCCCCCCC(=O)OC [Methyl ricinoleate] | > 90 µM
CCCCS [1-Butanethiol] | > 90 µM
CN1CCN(c2c(F)cc3c(=O)c(C(=O)O)cn(CCF)c3c2F)CC1 [Fleroxacin] | > 50 µM

SMILES | CC50 at 24 h
O=C1Nc2ccc(Cl)cc2C(c2ccccc2Cl)=NC1O (centres unmarked) [Lorazepam] | > 50 µM
O=C(CCBr)N1CCN(C(=O)CCBr)CC1 [Pipobroman] | > 50 µM
CC(N)=O [Acetamide] | > 200 µM
CN(C)C=O [N,N-Dimethylformamide] | > 90 µM
N#CC(CCc1ccc(Cl)cc1)(Cn1cncn1)c1ccccc1 (centres unmarked) [Fenbuconazole] | 49.1 µM
C=C(C)[C@@H]1CC=C(C)CC1 [(S)-Limonene] | > 90 µM
CNS(=O)(=O)CCc1ccc2[nH]cc(C3CCN(C)CC3)c2c1 [Naratriptan hydrochloride] | > 50 µM
O=C(N[C@H](CO)[C@H](O)c1ccc([N+](=O)[O-])cc1)C(Cl)Cl [Chloramphenicol] | > 90 µM
OC[C@@H](O)[C@H](O)[C@@H](O)[C@@H](O)CO [L-Glucitol] | > 90 µM
CCCCC(CC)COC(=O)COc1ccc(Cl)cc1C (centres unmarked) [MCPA-2-ethylhexyl] | > 90 µM
NS(=O)(=O)c1cc(Cl)c(Cl)c(S(N)(=O)=O)c1 [Dichlorphenamide] | > 20 µM
CCOC(=O)c1ccccc1C(=O)OCC [Diethyl phthalate] | > 90 µM
CC(CC(c1ccccc1)c1ccccc1)NC(C)(C)C (centres unmarked) [Terodiline hydrochloride] | 11 µM
O=C(O)CCNC(=O)c1ccc(/N=N/c2ccc(O)c(C(=O)O)c2)cc1 [Balsalazide] | > 50 µM
CC(C)NC(=O)N1CC(=O)N(c2cc(Cl)cc(Cl)c2)C1=O [Iprodione] | > 90 µM
CCCOC(=O)c1ccccc1O [Propyl salicylate] | > 50 µM
COc1ccc(C(=O)c2ccccc2)c(O)c1 [2-Hydroxy-4-methoxybenzophenone] | > 50 µM
NCCCC[C@H](NC(=O)[C@@H]1CCCN1C(=O)[C@@H]1CSSC[C@H](NC(=O)CNC(=O)CNC(=O)CN)C(=O)N[C@@H](Cc2ccc(O)cc2)C(=O)N[C@@H](Cc2ccccc2)C(=O)N[C@@H](CCC(N)=O)C(=O)N[C@@H](CC(N)=O)C(=O)N1)C(=O)NCC(N)=O [Terlipressin] (H-GGGCYFQNCPKG-NH2; disulfide 4-9) | > 50 µM
CCC[C@@H]1C[C@@H](C(=O)N[C@@H]([C@H]2O[C@H](SC)[C@H](O)[C@@H](O)[C@H]2O)[C@@H](C)O)N(C)C1 [Lincomycin hydrochloride] | > 50 µM
N=c1nc(N2CCCCC2)cc(N)n1O [Minoxidil] | > 50 µM
CCCCCCOC(=O)c1ccccc1C(=O)OCCCCCC [Dihexyl phthalate] | > 90 µM
O=S(=O)(O)CCO [Sodium 2-hydroxyethanesulfonate] | > 90 µM
Oc1ccc(Cl)c2c1CCC2 [Chlorindanol] | > 50 µM
N#Cc1cscn1 [4-Thiazolecarbonitrile] | > 90 µM

Same assay, conditions: rat, gh3-tre-luc cells, AC50 (uM) modified / 1000, Tox21_110001=Tox21_111063; viability, 1 nM T3 present, 24 h

SMILES | CC50 at 24 h
CCCC(C)(COC(N)=O)COC(N)=O [Meprobamate] | > 50 µM

Same assay, conditions: rat, gh3-tre-luc cells, AC50 (uM) modified / 1000, Tox21_110001=Tox21_111607; viability, 1 nM T3 present, 24 h

SMILES | CC50 at 24 h
CC1OC(C)OC(C)O1 (centres unmarked) [Paraldehyde] | > 50 µM

Same assay, conditions: rat, gh3-tre-luc cells, AC50 (uM) modified / 1000, Tox21_110001=Tox21_112022; viability, 1 nM T3 present, 24 h

SMILES | CC50 at 24 h
C[C@@H](CO)NC(=O)[C@@H]1C=C2c3cccc4[nH]cc(c34)C[C@H]2N(C)C1 [Ergonovine] | > 50 µM

Same assay, conditions: rat, gh3-tre-luc cells, AC50 (uM) modified / 1000, Tox21_110001=Tox21_112025; viability, 1 nM T3 present, 24 h

SMILES | CC50 at 24 h
C=CC[N+]1(C)CC[C@]23c4c5ccc(O)c4O[C@H]2C(=O)CC[C@@]3(O)[C@H]1C5 (some centres unmarked) [Naloxone methyliodide] | > 50 µM

Same assay, conditions: rat, gh3-tre-luc cells, AC50 (uM) modified / 1000, Tox21_110001=Tox21_200241; viability, 1 nM T3 present, 24 h

SMILES | CC50 at 24 h
CN(C)CCN(C)C [N,N,N',N'-Tetramethylethylenediamine] | > 90 µM

Same assay, conditions: rat, gh3-tre-luc cells, AC50 (uM) modified / 1000, Tox21_110001=Tox21_200332; viability, 1 nM T3 present, 24 h

SMILES | CC50 at 24 h
CCCC(C)(COC(N)=O)COC(N)=O [Meprobamate] | > 90 µM

Same assay, conditions: rat, gh3-tre-luc cells, AC50 (uM) modified / 1000, Tox21_110001=Tox21_301299; viability, 1 nM T3 present, 24 h

SMILES | CC50 at 24 h
CC1OC(C)OC(C)O1 (centres unmarked) [Paraldehyde] | > 90 µM

Same assay, conditions: rat, gh3-tre-luc cells, AC50 (uM) modified / 1000, Tox21_110001=Tox21_301918; viability, 1 nM T3 present, 24 h

SMILES | CC50 at 24 h
COP(=S)(OC)Oc1cc(Cl)c(Br)cc1Cl [Bromofos] | > 90 µM

From article PMC6792352, “Limited Chemical Structural Diversity Found to Modulate Thyroid Hormone Receptor in the Tox21 Chemical Library” (Environmental Health Perspectives, 2019)
